The results in this text go back to patent publication US20240400545A1, “COMPOUND SERVING AS KAT6 INHIBITOR” (Hangzhou Innogate Pharma Co., Ltd., priority 2021, published 2024).

Read-outs that look alike come from different tables or passages of the source. Some results are limits rather than exact numbers.

Series [1] can be described thus: Pharmacokinetic study in rats (intragastrical administration). The following applies: plasma.
Procedure: (§1) All measurement data were collected and processed by Masslynx V4.1 software, and the data were calculated and processed by Microsoft Excel. The statistical moment method of WinNonLin 8.0 software was used to calculate the pharmacokinetic parameters. These mainly include kinetic parameters Tmax, T1/2, Cmax, AUC0-24 h etc. Column: ACQUITY UPLC BEH C18 (2.1 mm×50 mm, 1.7 μm); column temperature 40° C.; mobile phase A is water (0.1% formic acid), mobile phase B is acetonitrile, flow rate is 0.350 mL/min, gradient elution is adopted, the elution gradient is 0.50 min: 10% B; 1.50 min: 90% B; 2.50 min: 90% B; 2.51 min: 10% B; 3.50 min: stop. Injection volume: 1 μL.
(§2) Animals: 3 male SD rats with a weight range of 200-220 g were purchased and kept in the laboratory of the Experimental Animal Center for 2 days and then used. They were fasted for 12 hours predose and 4 hours after dosing. Drinking water was free during the test. After the rats were gavage, blood samples were taken according to the established time point.
(§3) Solvent: 0.4% ethanol+0.4% Tween80+99.2% (0.5% methylcellulose M450). Preparation of the solution for intragastrical administration: the compounds were accurately weighed and added to the solvent, and ultrasound was used at room temperature for 5 minutes to completely dissolve the drug, and a 0.3 mg/mL medicinal solution was prepared.
(§4) A single administration was also used to study the pharmacokinetics of the drug sample in rats.
(§5) After intragastrical administration, blood was taken from the orbit at 0.25, 0.5, 1, 2, 4, 8, 10 and 24 hours. Then 50 μL of the plasma sample was taken and added 200 μL of acetonitrile (including internal standard control verapamil 2 ng/mL), vortexed for 3 min and centrifuged at 20000 rcf, 4° C. for 10 min. The supernatant plasma was used for LC-MS/MS analysis.
(§6) The compounds were accurately weighed to prepare different concentrations, and quantitative analysis on mass spectrometry was performed to establish a standard curve, and then the concentration of the above-mentioned compound in the plasma was tested to obtain its concentration at different time points. All measurement data were collected and processed by relevant software, and the statistical moment method was used to calculate the pharmacokinetic parameters (mainly including kinetic parameters Tmax, T1/2, Cmax, AUC0-24 h etc).
For series [2], the target named is KAT6A enzyme (catalytic domain) (Homo sapiens (Human), UniProt Q92794). Nature of the series: Inhibition of KAT6A enzyme activity ([3H]-acetyl-CoA / H3 (1-21) peptide, Flashplate). The format is biochemical. To be noted: for inhibition at 0.011 µM: KAT6A, compound concentration 11 nM, read-out: Inhibition % of compounds at the concentration of 11 nM; for IC50: KAT6A catalytic domain, [3H]-acetyl-CoA, substrate peptide H3 (1-21). Here is the method: No. […] The plate was incubated at room temperature for 1 hour. 10 μL of the stop solution was added to terminate the reaction. 25 μL of the reaction solution was transferred to a Flashplate (Perkin Elmer, Cat. No. […]) and incubated at room temperature for 1 hour. The plate was read using Microbeta. The inhibition rate of the compounds was calculated using the formula of Excel: inhibition %=(Max-Signal)/(Max-Min)*100%. Where max is the value of the DMSO control, min is the value of the non-enzymatic control, and signal is the value of the well where the compound was tested. The curve was fitted using XLFit software and IC50 was calculated.
Chain of KAT6A enzyme (catalytic domain) (Q92794 504-778): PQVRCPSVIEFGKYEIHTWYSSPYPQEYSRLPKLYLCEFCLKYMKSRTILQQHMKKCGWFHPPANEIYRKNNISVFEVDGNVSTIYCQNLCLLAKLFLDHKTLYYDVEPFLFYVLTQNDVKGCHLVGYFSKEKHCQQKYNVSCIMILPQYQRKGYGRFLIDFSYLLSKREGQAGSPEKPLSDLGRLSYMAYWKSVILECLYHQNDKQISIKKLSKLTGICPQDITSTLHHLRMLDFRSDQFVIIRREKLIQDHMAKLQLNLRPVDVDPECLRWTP

For series [3] the following is noted: rat, in vivo, po, 3 mg/kg.
Procedure: as §1, §2, §3, §4, §5, §6
Setting [4] is: male SD rats, intragastrical, 1.5 mg/Kg.

For `CC#Cc1ccc(S(=O)(=O)Nc2noc3cc(Cn4cccn4)cc(OC)c23)c(OC)c1` [Compound 16], in series [1] (male, SD, rat, po, 3 mg/kg), the AUC(0-t) (usually exposure summed from dosing to a finite time, without extrapolation to infinity) was found to be 45300 ng·h/mL; the concentration peaked (Cmax) at 2790 ng/mL; the time of peak concentration (Tmax) – broadly, the time from dosing to the highest level – is 2.67 h; the half-life (usually how long it takes for the measured level to halve) was 14.4 h.
On to `COc1cc(C#CC2COC2)cc(OC)c1S(=O)(=O)Nc1noc2cc(Cn3cccn3)cc(OC)c12` [Compound 14], for which, in series [1] (male, SD, rat, po, 3 mg/kg), the AUC(0-t) was 5960 ng·h/mL, the concentration peaked (Cmax) at 428 ng/mL, the time to peak (Tmax) worked out at 3.33 h and the half-life was 6.62 h. The inhibition at 0.011 µM in series [2] came out at 67%.
For the compound `COc1cc(C#CC2CC(F)(F)C2)cc(OC)c1S(=O)(=O)Nc1noc2cc(Cn3cccn3)cc(OC)c12` [Compound 15], in series [1] (male, SD, rat, po, 3 mg/kg), the exposure AUC(0-t) worked out at 32500 ng·h/mL; the Cmax (as a rule, the peak of the concentration-time curve) stood at 2120 ng/mL; the time of peak concentration (Tmax) came out at 3.33 h; the half-life is 7.85 h.
On to `COc1ccc(OC2CCC2)cc1S(=O)(=O)Nc1noc2cc(Cn3cccn3)cc(OC)c12` [Compound 1], for which, in series [1] (setting [4]), the AUC0-24h came to 4481.07 ng·h/mL, the Cmax was 392.76 ng/mL, the T1/2 worked out at 2.66 h and the time of peak concentration (Tmax) was 3.00 h. Besides, the IC50 (usually the concentration that gives 50% inhibition) in series [2] is under 5 nM.
With `C#Cc1cc(OC)c(S(=O)(=O)Nc2noc3cc(Cn4cccn4)cc(OC)c23)c(OC)c1` [Compound 4], in series [3], the AUC0-24h turned out to be 109958.71 ng·h/mL, the Cmax came to 6737.13 ng/mL, the T1/2 came to 8.04 h and the time to peak (Tmax) is listed as 9.33 h. The compound also gave an IC50 in series [2] of under 5 nM.
For `COc1cc(N2CCC2)ccc1S(=O)(=O)Nc1noc2cc(Cn3cccn3)cc(OC)c12` [Compound 17], in series [1] (male, SD, rat, po, 3 mg/kg), the exposure AUC(0-t) came out at 3120 ng·h/mL, the Cmax was found to be 229 ng/mL, the Tmax worked out at 2.67 h and the half-life was 3.17 h. Also, the inhibition at 0.011 µM in series [2] amounted to 75%.
With `C#Cc1ccc(S(=O)(=O)Nc2noc3cc(Cn4cccn4)cc(OC)c23)c(OC)c1` [Compound 11], in series [1] (male, SD, rat, po, 2 mg/kg), the AUC(0-t) came to 53700 ng·h/mL, the Cmax turned out to be 6380 ng/mL, the time of peak concentration (Tmax) turned out to be 1.33 h and the half-life is 5.29 h.
As to `COc1ccc(N2CCC2)cc1S(=O)(=O)Nc1noc2cc(Cn3cccn3)cc(OC)c12` [Compound 2], the half-inhibitory concentration (IC50) in series [2] is under 10 nM.
`COc1cc(C#CC2CC2)ccc1S(=O)(=O)Nc1noc2cc(Cn3cccn3)cc(OC)c12` [Compound 12]: in series [1] (male, SD, rat, po, 3 mg/kg), the exposure AUC(0-t) turned out to be 82200 ng·h/mL, the concentration peaked (Cmax) at 4830 ng/mL, the Tmax was determined as 2 h and the half-life is 24.6 h.
